Target: T1, glutathione peroxidase 4 (hGPX4-C) (Homo sapiens, UniProt P36969, U73C)
T1 construct: gene GPX4; human cytosolic GPX4 (c-GPX4), his-tagged, expressed in E. coli M15
Assay: activation of purified GPX4 in a glutathione reductase/NADPH coupled assay; Tm shift about […]°C; D23A mutant loses activation; CETSA in HEK293T cells
Type: biochemical
Settings: read-out: % (maximum activation)

T1 sequence (P36969 other isoform, or with tags, fused parts or gaps U73C): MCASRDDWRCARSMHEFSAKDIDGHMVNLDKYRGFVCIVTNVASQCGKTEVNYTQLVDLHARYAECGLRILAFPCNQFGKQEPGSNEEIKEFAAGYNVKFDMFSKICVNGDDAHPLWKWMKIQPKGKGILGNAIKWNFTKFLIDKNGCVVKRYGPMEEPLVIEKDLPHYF

NC1=NC2(O)C(=O)c3ccccc3C2(O)N1 (stereo not shown) [compound 102, PKUMDL-LC-102]
Emax: 236%
